Literature values as cited in paper PMC3079564 (Chemical biology & drug design, 2011).

Columns and labels:
[1] = system: gp120 from the YU2 strain
[2] = system: recombinant HIV-1 carrying HIV-1YU2 envelope glycoproteins on Cf2Th-CCR5 cells lacking CD4

CC1(C)CC(NC(=O)C(=O)Nc2ccc(Cl)cc2)CC(C)(C)N1 [NBD-556]
-TΔS of binding to gp120 ([1]; 25 °C): 17.1 kcal/mol | ΔH of binding to gp120 ([1]; 25 °C): -24.5 kcal/mol | measured heat capacity change on binding to gp120 ([1]; NBD-556): -1.0 kcal/(K × mol) | enhancement of viral infectivity in CD4 negative cells [2]: three orders of magnitude
